The results in this text go back to patent US12421225B2, “Heteroaromatic amide derivative and medicament containing the same” (KAKEN PHARMACEUTICAL CO., LTD., priority 2018, dated 2025).

One data set addresses human Nav1.7 (Homo sapiens (Human), UniProt Q15858). In words: Human Nav1.7 inhibitory activity evaluation (automated patch clamp QPatch16X, HEK293A cells stably expressing human Nav1.7 and human Navβ1). The class given is cell-based. The method in brief:
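IC50 calculated from the concentration-response of inward current evoked by the second −10 mV, 50 ms depolarisation, which follows a 15 s conditioning step at roughly 30-40% inactivation and a 100 ms −120 mV interval. Cells: HEK293A expressing human Nav1.7/Navβ1, automated patch clamp, room temperature, 0.1% DMSO final.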

The target of another data set is human Nav1.5 (Homo sapiens (Human), UniProt Q14524). In words: Human Nav1.5 inhibitory activity evaluation (automated patch clamp QPatch16X, HEK293 cells stably expressing human Nav1.5). The class given is cell-based. The gist of the method:
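IC50 derived from concentration-response of inward current at the 20th of 20 action-potential-mimicking pulses (holding −80 mV, leak corrected with −100 mV step). HEK293 cells stably expressing human Nav1.5, room temperature, extracellular pH 7.4, intracellular CsF-based pH 7.3, 0.1% DMSO.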

The mark [1] stands for this setting: HEK293A cells stably expressing human Nav1.7 and human Navβ1, automated patch clamp QPatch16X.
[2] abbreviates: HEK293 cells stably expressing human Nav1.5, automated patch clamp QPatch16X.
Where [3] appears, read: human Nav1.7, automated patch clamp.
Where [4] appears, read: human Nav1.5, automated patch clamp.

Chain of human Nav1.7 (Q15858 whole entry): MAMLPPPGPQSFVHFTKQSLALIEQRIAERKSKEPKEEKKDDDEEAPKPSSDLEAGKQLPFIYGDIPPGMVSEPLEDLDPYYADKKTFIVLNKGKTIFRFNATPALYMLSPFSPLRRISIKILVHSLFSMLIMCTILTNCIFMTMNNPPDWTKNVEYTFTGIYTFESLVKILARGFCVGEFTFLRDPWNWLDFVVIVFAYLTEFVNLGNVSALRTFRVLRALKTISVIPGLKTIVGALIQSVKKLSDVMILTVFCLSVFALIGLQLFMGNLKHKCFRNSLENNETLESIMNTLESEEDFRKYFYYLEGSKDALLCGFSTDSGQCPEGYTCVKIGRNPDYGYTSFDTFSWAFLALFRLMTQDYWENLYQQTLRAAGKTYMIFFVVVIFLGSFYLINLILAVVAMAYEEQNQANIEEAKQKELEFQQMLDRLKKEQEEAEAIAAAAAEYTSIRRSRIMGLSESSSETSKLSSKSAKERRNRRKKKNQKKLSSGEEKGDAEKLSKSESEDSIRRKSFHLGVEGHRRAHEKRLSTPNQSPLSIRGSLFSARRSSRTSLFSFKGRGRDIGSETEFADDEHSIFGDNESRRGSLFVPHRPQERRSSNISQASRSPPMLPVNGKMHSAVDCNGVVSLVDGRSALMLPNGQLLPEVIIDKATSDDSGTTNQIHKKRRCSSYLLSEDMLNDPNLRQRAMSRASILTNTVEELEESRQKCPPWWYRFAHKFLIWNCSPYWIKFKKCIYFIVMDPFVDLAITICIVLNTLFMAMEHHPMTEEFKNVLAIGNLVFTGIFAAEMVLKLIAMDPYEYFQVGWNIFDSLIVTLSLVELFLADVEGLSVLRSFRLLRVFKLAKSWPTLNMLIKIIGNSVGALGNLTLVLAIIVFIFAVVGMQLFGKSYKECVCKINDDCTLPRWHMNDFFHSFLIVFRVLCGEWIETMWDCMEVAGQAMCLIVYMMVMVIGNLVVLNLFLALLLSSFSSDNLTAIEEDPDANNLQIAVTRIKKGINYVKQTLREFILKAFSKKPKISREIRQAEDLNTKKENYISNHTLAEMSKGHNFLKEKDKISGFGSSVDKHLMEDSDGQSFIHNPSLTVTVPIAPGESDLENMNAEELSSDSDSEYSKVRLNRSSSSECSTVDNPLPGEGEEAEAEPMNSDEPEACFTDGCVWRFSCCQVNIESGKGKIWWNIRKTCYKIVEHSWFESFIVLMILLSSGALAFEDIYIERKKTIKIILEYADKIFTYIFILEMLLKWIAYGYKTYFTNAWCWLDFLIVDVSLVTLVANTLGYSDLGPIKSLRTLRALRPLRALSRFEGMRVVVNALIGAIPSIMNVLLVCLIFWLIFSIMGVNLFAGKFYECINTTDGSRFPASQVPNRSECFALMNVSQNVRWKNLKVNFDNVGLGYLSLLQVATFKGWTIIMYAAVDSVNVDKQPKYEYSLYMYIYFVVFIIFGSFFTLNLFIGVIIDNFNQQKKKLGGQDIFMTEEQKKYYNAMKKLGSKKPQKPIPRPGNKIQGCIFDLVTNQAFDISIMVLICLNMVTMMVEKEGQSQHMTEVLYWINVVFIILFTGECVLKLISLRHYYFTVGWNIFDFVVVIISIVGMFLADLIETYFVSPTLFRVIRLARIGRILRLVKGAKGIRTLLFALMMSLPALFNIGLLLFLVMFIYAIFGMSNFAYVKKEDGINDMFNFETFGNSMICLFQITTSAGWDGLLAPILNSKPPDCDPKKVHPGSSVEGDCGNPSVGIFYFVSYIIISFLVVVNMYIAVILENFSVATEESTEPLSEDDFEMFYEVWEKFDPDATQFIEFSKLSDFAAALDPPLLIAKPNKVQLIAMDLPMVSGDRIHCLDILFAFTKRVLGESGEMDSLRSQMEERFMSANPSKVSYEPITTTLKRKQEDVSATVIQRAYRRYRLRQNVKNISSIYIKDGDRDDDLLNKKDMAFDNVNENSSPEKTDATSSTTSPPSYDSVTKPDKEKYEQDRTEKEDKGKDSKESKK
Chain of human Nav1.7 (Q07699 19-218 partner): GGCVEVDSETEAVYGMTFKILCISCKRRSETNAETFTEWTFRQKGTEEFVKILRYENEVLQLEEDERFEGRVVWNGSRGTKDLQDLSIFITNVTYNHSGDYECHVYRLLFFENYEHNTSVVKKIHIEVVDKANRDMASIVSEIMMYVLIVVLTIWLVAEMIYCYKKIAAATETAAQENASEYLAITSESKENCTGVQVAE
Chain of human Nav1.5 (Q14524 whole entry): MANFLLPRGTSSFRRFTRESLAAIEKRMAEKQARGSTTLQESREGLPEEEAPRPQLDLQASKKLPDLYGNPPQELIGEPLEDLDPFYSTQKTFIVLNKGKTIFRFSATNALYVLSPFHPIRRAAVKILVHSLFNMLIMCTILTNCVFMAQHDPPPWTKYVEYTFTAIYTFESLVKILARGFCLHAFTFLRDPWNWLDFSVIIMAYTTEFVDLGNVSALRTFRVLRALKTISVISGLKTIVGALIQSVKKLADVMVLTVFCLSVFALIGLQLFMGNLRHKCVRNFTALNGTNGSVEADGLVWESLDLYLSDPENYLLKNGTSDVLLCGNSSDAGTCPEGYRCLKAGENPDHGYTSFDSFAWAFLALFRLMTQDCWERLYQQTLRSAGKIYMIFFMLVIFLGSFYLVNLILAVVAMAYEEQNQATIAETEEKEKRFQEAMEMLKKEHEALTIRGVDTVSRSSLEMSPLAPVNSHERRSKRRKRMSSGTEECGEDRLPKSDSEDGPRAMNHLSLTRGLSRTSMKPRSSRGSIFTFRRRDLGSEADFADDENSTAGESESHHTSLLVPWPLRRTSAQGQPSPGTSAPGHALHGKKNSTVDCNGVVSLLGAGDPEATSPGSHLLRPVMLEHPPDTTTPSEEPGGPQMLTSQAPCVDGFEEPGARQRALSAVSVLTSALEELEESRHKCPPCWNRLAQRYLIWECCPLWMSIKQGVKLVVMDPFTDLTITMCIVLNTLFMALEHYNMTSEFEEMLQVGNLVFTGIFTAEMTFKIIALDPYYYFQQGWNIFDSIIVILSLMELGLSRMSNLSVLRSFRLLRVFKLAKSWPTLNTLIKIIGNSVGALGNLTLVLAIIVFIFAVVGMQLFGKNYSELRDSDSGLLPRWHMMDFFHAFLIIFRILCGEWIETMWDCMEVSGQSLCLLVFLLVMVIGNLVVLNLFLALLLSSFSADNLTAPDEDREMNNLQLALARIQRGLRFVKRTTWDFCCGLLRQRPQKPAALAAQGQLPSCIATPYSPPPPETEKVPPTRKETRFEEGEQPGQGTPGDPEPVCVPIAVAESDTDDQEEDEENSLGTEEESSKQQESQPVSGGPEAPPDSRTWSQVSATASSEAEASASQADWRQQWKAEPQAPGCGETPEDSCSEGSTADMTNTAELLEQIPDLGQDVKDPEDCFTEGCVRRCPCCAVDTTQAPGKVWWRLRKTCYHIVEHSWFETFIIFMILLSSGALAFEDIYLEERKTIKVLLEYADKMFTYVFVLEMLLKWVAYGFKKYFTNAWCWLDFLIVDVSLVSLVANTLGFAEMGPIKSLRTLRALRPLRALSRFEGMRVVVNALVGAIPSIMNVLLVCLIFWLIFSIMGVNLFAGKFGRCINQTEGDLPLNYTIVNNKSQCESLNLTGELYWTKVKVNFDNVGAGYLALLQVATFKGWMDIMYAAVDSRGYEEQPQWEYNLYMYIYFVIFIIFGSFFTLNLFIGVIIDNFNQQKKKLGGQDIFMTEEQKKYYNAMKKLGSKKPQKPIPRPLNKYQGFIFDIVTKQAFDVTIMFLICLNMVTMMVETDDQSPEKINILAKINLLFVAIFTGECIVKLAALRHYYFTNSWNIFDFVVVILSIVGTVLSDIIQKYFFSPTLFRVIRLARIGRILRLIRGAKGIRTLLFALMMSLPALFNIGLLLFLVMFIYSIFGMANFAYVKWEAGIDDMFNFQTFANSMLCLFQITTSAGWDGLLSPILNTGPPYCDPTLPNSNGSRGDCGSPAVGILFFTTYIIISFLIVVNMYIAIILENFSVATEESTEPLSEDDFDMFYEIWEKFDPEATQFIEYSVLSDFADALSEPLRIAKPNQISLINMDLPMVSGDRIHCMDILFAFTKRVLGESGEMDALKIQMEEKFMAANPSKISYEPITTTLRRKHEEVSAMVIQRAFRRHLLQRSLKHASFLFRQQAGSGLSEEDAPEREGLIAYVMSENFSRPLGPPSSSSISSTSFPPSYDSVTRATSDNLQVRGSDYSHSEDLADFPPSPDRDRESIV

Take `O=C(N[C@H]1COc2ccc(CC(F)F)cc2C1)c1cc2n(n1)CCC(COC(F)F)O2` (stereo partly shown) [Example 137]: the IC50 on human Nav1.7 (setting [1]) is under 1 µM; at human Nav1.5 (setting [2]), at least 3 µM.
`O=C(N[C@H]1COc2ccc(COCC(F)(F)F)cc2C1)c1cc2n(n1)CCC(COC(F)F)O2` (stereo partly shown) [Example 139]: the IC50 at human Nav1.7 (setting [1]) is under 1 µM; against human Nav1.5 (setting [2]), at least 3 µM.
For `O=C(N[C@H]1COc2ccc(CCOC(F)F)cc2C1)c1cc2n(n1)CCC(COC(F)F)O2` (stereo partly shown) [Example 141], the IC50 was under 1 µM at human Nav1.7 (setting [3]) and at least 3 µM against human Nav1.5 (setting [4]).
The like results for `N#Cc1ccc2c(c1)C[C@@H](NC(=O)c1cc3n(n1)CCC(CCOC(F)(F)F)O3)CO2` (stereo partly shown) [Example 143] were, in that order, under 1 µM and at least 3 µM.
For `N#Cc1ccc2c(c1)C[C@@H](NC(=O)c1cc3n(n1)CCC(CCOC(F)F)O3)CO2` (stereo partly shown) [Example 145], the IC50 against human Nav1.7 (setting [3]) is under 1 µM; against human Nav1.5 (setting [4]) it was at least 3 µM.
The like results for `O=C(N[C@H]1COc2ccc(CC(F)F)cc2C1)c1cc2n(n1)CCC(CCOC(F)F)O2` (stereo partly shown) [Example 147] were, in that order, under 1 µM and at least 3 µM.
For the compound `O=C(N[C@H]1COc2ccc(COCC(F)(F)F)cc2C1)c1cc2n(n1)CCC(CCOC(F)F)O2` (stereo partly shown) [Example 149], the IC50 was under 1 µM at human Nav1.7 (setting [3]) and 1 to 3 µM against human Nav1.5 (setting [4]).
With `O=C(N[C@H]1COc2ccc(Cl)cc2C1)c1cc2n(n1)CCC(CNCC(F)(F)F)O2` (stereo partly shown) [Example 151], the IC50 was under 1 µM at human Nav1.7 (setting [3]) and 1 to 3 µM at human Nav1.5 (setting [4]).
Regarding `N#Cc1ccc2c(c1)C[C@@H](NC(=O)c1cc3n(n1)CCC(CSC(F)(F)F)O3)CO2` (stereo partly shown) [Example 155], the IC50 at human Nav1.7 (setting [3]) was under 10 µM; against human Nav1.5 (setting [4]) it was at least 3 µM.
Turning to `O=C(N[C@H]1COc2ccc(Cl)cc2C1)c1cc2n(n1)CCC(C(F)F)O2` (stereo partly shown) [Example 157], the figures for the IC50 on human Nav1.7 (setting [3]) and against human Nav1.5 (setting [4]) were under 10 µM and at least 3 µM, respectively.
On the same counts, the results for `O=C(N[C@H]1COc2ccc(Br)cc2C1)c1cc2n(n1)CCC(C(F)F)O2` (stereo partly drawn) [Example 159, N—((R)-6-bromochroman-3-yl)-5-(difluoromethyl)-6,7-dihydro-5H-pyrazolo[5,1-b][1,3]oxazine-2-carboxamide] are under 1 µM and at least 3 µM.
The like results for `O=C(N[C@H]1COc2ccc(COCC(F)(F)F)cc2C1)c1cc2n(n1)CCC(C(F)F)O2` (stereo partly shown) [Example 162] were, in that order, under 1 µM and at least 3 µM.
Take `O=C(N[C@H]1COc2ccc(CCOC(F)F)cc2C1)c1cc2n(n1)CCC(C(F)F)O2` (stereo partly shown) [Example 164]: the IC50 at human Nav1.7 (setting [3]) is under 1 µM; against human Nav1.5 (setting [4]), at least 3 µM.
The like results for `CC(F)(F)C1CCn2nc(C(=O)N[C@H]3COc4ccc(Cl)cc4C3)cc2O1` (stereo partly shown) [Example 167] were, in that order, under 1 µM and 1 to 3 µM.
On the same counts, the results for `CCC(O)(CC)C1CCn2nc(C(=O)N[C@H]3COc4ccc(Cl)cc4C3)cc2O1` (stereo partly shown) [Example 168] are under 10 µM and at least 3 µM.
On the same counts, the results for `O=C(N[C@H]1COc2ccc(Cl)cc2C1)c1cc2n(n1)CCC(C(F)(F)F)O2` (stereo partly shown) [Example 169] are under 1 µM and 1 to 3 µM.
Consider `O=C(N[C@H]1COc2ccc(Br)cc2C1)c1cc2n(n1)CCC(C(F)(F)F)O2` (stereo partly shown) [Example 171], for which the IC50 is under 1 µM at human Nav1.7 (setting [3]) and 1 to 3 µM on human Nav1.5 (setting [4]).
With `O=C(N[C@H]1COc2ccc(CC(F)F)cc2C1)c1cc2n(n1)CCC(C(F)(F)F)O2` (stereo partly shown) [Example 172], the IC50 against human Nav1.7 (setting [3]) was under 10 µM; against human Nav1.5 (setting [4]) it was at least 3 µM.
On the same counts, the results for `N#Cc1ccc(-c2ccc3c(c2)C[C@@H](NC(=O)c2cc4n(n2)CCC(C(F)(F)F)O4)CO3)cn1` (stereo partly shown) [Example 174] are under 1 µM and at least 3 µM.
The like results for `Cc1ccc(-c2ccc3c(c2)C[C@@H](NC(=O)c2cc4n(n2)CCC(C(F)(F)F)O4)CO3)cn1` (stereo partly shown) [Example 175] were, in that order, under 10 µM and at least 3 µM.
On the same counts, the results for `CC1(C)CCn2nc(C(=O)N[C@H]3COc4ccc(Cl)cc4C3)cc2O1` [Example 177] are under 1 µM and 1 to 3 µM.
Consider `CC1(C)CCn2nc(C(=O)N[C@H]3COc4ccc(C#N)cc4C3)cc2O1` [Example 178], for which the IC50 is under 10 µM on human Nav1.7 (setting [3]) and at least 3 µM against human Nav1.5 (setting [4]).
Take `O=C(N[C@H]1COc2ccccc2C1)c1cc2n(n1)CC(c1ccccc1)O2` (stereo partly shown) [Example 181]: the IC50 was under 1 µM against human Nav1.7 (setting [3]) and at least 3 µM against human Nav1.5 (setting [4]).
On the same counts, the results for `O=C(N[C@H]1COc2ccc(COCC(F)(F)F)cc2C1)c1cc2n(n1)CC(COCC1CC1)O2` (stereo partly shown) [Example 185] are under 1 µM and at least 3 µM.
On the same counts, the results for `O=C(N[C@H]1COc2ccc(COCC(F)(F)F)cc2C1)c1cc2n(n1)CC(COCC(F)(F)F)O2` (stereo partly drawn) [Example 187, 2-((2,2,2-trifluoroethoxy)methyl)-N—((R)-6-((2,2,2-trifluoroethoxy)methyl)chroman-3-yl)-2,3-dihydropyrazolo[5,1-b]oxazole-6-carboxamide] are under 1 µM and at least 3 µM.
On to `O=C(N[C@H]1COc2ccc(CCOC(F)F)cc2C1)c1cc2n(n1)CC(COCC(F)(F)F)O2` (stereo partly shown) [Example 189], for which the IC50 at human Nav1.7 (setting [3]) is under 1 µM; against human Nav1.5 (setting [4]) it was at least 3 µM.
On to `O=C(N[C@H]1COc2ccc(COCC(F)(F)F)cc2C1)c1cc2n(n1)CC(COC(F)(F)F)O2` (stereo partly shown) [Example 195], for which the IC50 on human Nav1.7 (setting [3]) is under 1 µM; on human Nav1.5 (setting [4]) it was at least 3 µM.
On the same counts, the results for `O=C(N[C@H]1COc2ccc(CC(F)F)cc2C1)c1cc2n(n1)CC(COC(F)(F)F)O2` (stereo partly shown) [Example 197] are under 1 µM and at least 3 µM.
On the same counts, the results for `N#Cc1ccc2c(c1)C[C@@H](NC(=O)c1cc3n(n1)CC(CSCC(F)(F)F)O3)CO2` (stereo partly shown) [Example 199] are under 10 µM and at least 3 µM.
On the same counts, the results for `N#Cc1ccc2c(c1)C[C@@H](NC(=O)c1cc3n(n1)CC(CCOCC1CC1)O3)CO2` (stereo partly drawn) [Example 201, N—((R)-6-cyanochroman-3-yl)-2-(2-(cyclopropylmethoxy)ethyl)-2,3-dihydropyrazolo[5,1-b]oxazole-6-carboxamide] are under 1 µM and 1 to 3 µM.
As to `Cn1ccc(-c2ccc3c(c2)C[C@@H](NC(=O)c2cc4n(n2)CC(CCOCC(F)(F)F)O4)CO3)n1` (stereo partly shown) [Example 205], the IC50 against human Nav1.7 (setting [3]) was under 10 µM; on human Nav1.5 (setting [4]) it was at least 3 µM.
On the same counts, the results for `N#Cc1ccc2c(c1)C[C@@H](NC(=O)c1cc3n(n1)CC(CCOC(F)(F)F)O3)CO2` (stereo partly shown) [Example 208] are under 1 µM and under 1 µM.
For `Cn1ccc(-c2ccc3c(c2)C[C@@H](NC(=O)c2cc4n(n2)CC(CCOC(F)(F)F)O4)CO3)n1` (stereo partly shown) [Example 212], the results for the IC50 against human Nav1.7 (setting [3]) and on human Nav1.5 (setting [4]) were under 1 µM and at least 3 µM, respectively.
On the same counts, the results for `O=C(N[C@H]1COc2ccc(COCC(F)(F)F)cc2C1)c1cc2n(n1)CC(CCOC(F)F)O2` (stereo partly shown) [Example 214] are under 1 µM and 1 to 3 µM.
Take `O=C(N[C@H]1COc2ccc(CC(F)F)cc2C1)c1cc2n(n1)CC(CCOC(F)F)O2` (stereo partly shown) [Example 218]: the IC50 against human Nav1.7 (setting [3]) was under 1 µM; on human Nav1.5 (setting [4]) it was at least 3 µM.
On the same counts, the results for `Cn1cc(-c2ccc3c(c2)C[C@@H](NC(=O)c2cc4n(n2)CC(CCOC(F)F)O4)CO3)cn1` (stereo partly shown) [Example 220] are under 10 µM and 1 to 3 µM.
On the same counts, the results for `O=C(N[C@H]1COc2ccc(-c3cnccn3)cc2C1)c1cc2n(n1)CC(CCOC(F)F)O2` (stereo partly shown) [Example 222] are under 1 µM and at least 3 µM.
On the same counts, the results for `O=C(N[C@H]1COc2ccc(Cl)cc2C1)c1cc2n(n1)CC(CCNCC(F)(F)F)O2` (stereo partly shown) [Example 225] are under 1 µM and 1 to 3 µM.
As to `Cc1ccc2c(c1)C[C@@H](NC(=O)c1cc3n(n1)CC(CCNCC(F)(F)F)O3)CO2` (stereo partly shown) [Example 227], the IC50 is under 1 µM at human Nav1.7 (setting [3]) and 1 to 3 µM against human Nav1.5 (setting [4]).
Regarding `O=C(N[C@H]1COc2ccc(C(F)(F)F)cc2C1)c1cc2n(n1)CC(CCNCC(F)(F)F)O2` (stereo partly shown) [Example 229], the IC50 was under 1 µM at human Nav1.7 (setting [3]) and 1 to 3 µM at human Nav1.5 (setting [4]).
As for `O=C(N[C@H]1COc2ccc(COCC(F)(F)F)cc2C1)c1cc2n(n1)CC(CCNCC(F)(F)F)O2` (stereo partly shown) [Example 231], the IC50 is under 1 µM against human Nav1.7 (setting [3]) and at least 3 µM against human Nav1.5 (setting [4]).
The like results for `O=C(N[C@H]1COc2ccc(Cl)cc2C1)c1cc2n(n1)CC(CCN1CC(F)(F)C1)O2` (stereo partly shown) [Example 233] were, in that order, under 1 µM and under 1 µM.
With `N#Cc1ccc2c(c1)C[C@@H](NC(=O)c1cc3n(n1)CC(CCSCC(F)(F)F)O3)CO2` (stereo partly shown) [Example 243], the IC50 against human Nav1.7 (setting [3]) is under 1 µM; against human Nav1.5 (setting [4]), at least 3 µM.
On the same counts, the results for `N#Cc1ccc2c(c1)C[C@@H](NC(=O)c1cc3n(n1)CC(CCCOCC(F)(F)F)O3)CO2` (stereo partly shown) [Example 245] are under 1 µM and 1 to 3 µM.
On the same counts, the results for `N#Cc1ccc2c(c1)C[C@@H](NC(=O)c1cc3n(n1)CCCC(c1ccccc1)O3)CO2` (stereo partly shown) [Example 251] are under 1 µM and at least 3 µM.
On the same counts, the results for `N#Cc1ccc2c(c1)C[C@@H](NC(=O)c1cc3n(n1)CCC(OC(F)(F)F)CO3)CO2` (stereo partly drawn) [Example 252, N—((R)-6-cyanochroman-3-yl)-6-(trifluoromethoxy)-5,6,7,8-tetrahydropyrazolo[5,1-b][1,3]oxazepine-2-carboxamide] are under 1 µM and at least 3 µM.
Take `O=C(N[C@H]1COc2ccc(C(F)(F)F)cc2C1)c1nn2c(c1-c1ccn[nH]1)OCCCC2` [Example 258, (R)-3-(1H-pyrazol-5-yl)-N-(6-(trifluoromethyl)chroman-3-yl)-5,6,7,8-tetrahydropyrazolo[5,1-b][1,3]oxazepine-2-carboxamide]: the IC50 on human Nav1.7 (setting [3]) and against human Nav1.5 (setting [4]) was under 1 µM in each case.
